How the values were obtained:
[1] = Time course of hypoglycemic action in rats; type: in vivo; details: after an intravenous injection
[2] = test system: cultured L6 skeletal muscle cells; assay: Plasma HISS activity on glucose uptake in cultured L6 skeletal muscle cells (2-NBDG bioassay); type: cell-based; details: plasma insulin concentration versus RFU, linear regression
Procedure: Individual plasma samples were tested in 1-3 wells/sample with 2 measurements/well.

[3] = Time course of hypoglycemic action in humans; type: in vivo; details: after an intravenous injection
[4] = literature; cited from earlier work

Substance	time at which action returns to baseline [1] [min]	stimulation of glucose uptake response in L6 cells [2]	time at which action returns to baseline [3] [min]	hypoglycemic action [4]
insulin	35	not stimulated by insulin	90	–
bone morphogenetic protein 9	–	–	–	no rapid hypoglycemic effect

Reference: patent US9840547B2, “Hepatic insulin sensitizing substance and test meal for insulin sensitization” (SciMar Ltd., priority 2013, dated 2017)
